# Experimental data as given in ChEMBL document CHEMBL1201862, “PubChem BioAssay data set” (2004).
#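 Compound exposure: 48 hours, 5 concentrations, 96-well plates. The concentration for 50% growth inhibition is given as GI50.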 The source made the active and inactive calls. Cut-off read from the data, not from the text of the source: active = GI50 up to about 1.1 µM and inactive = higher.
# Key:
# Assay in all cases: NCI tumour cell line growth inhibition, 48 h
# SW-620 = system: SW-620
# NCI-H23 = system: NCI-H23
# COLO 205 = system: COLO 205
# SK-MEL-2 = system: SK-MEL-2
# Hs-578T = system: Hs-578T
# HT-29 = system: HT-29
# SF-539 = system: SF-539
# U-251 = system: U-251
# PC-3 = system: PC-3
# 786-0 = system: 786-0
# NCI-H460 = system: NCI-H460
# M14 = system: M14
# SN12C = system: SN12C
# NCI-H522 = system: NCI-H522
# SK-MEL-5 = system: SK-MEL-5
# HCT-116 = system: HCT-116
# OVCAR-5 = system: OVCAR-5
# HCT-15 = system: HCT-15
# EKVX = system: EKVX
# TK-10 = system: TK-10
SMILES,GI50 (SW-620),GI50 (NCI-H23),GI50 (COLO 205),GI50 (SK-MEL-2),GI50 (Hs-578T),GI50 (HT-29),GI50 (SF-539),GI50 (U-251),GI50 (PC-3),GI50 (786-0),GI50 (NCI-H460),GI50 (M14),GI50 (SN12C),GI50 (NCI-H522),GI50 (SK-MEL-5),GI50 (HCT-116),GI50 (OVCAR-5),GI50 (HCT-15) [µM],GI50 (EKVX),GI50 (TK-10)
COC(=O)c1cc2c(n1S(=O)(=O)c1ccc(C)cc1)C(=O)C(=O)c1[nH]cc(C(=O)OCc3ccccc3)c1-2,0.0514 µM (active),0.0649 µM (active),0.191 µM (active),0.112 µM (active),0.43 µM (active),0.273 µM (active),0.136 µM (active),0.172 µM (active),0.264 µM (active),0.23 µM (active),1.37 µM (inactive),0.0621 µM (active),0.08 µM (active),0.094 µM (active),0.0237 µM (active),0.0718 µM (active),0.575 µM (active),0.0673,0.279 µM (active),0.716 µM (active)
Cn1c(-c2cccs2)cc(-c2ccccc2)c1-c1cccs1,> 100 µM (inactive),4.75 µM (inactive),19.1 µM (inactive),25.5 µM (inactive),> 100 µM (inactive),63 µM (inactive),43.8 µM (inactive),47.8 µM (inactive),58.5 µM (inactive),35.4 µM (inactive),> 100 µM (inactive),56.6 µM (inactive),> 100 µM (inactive),50.8 µM (inactive),18.6 µM (inactive),31.2 µM (inactive),88.5 µM (inactive),> 100,22.7 µM (inactive),> 100 µM (inactive)
COC(=O)c1ccccc1C1CN=NC12Cc1c(ccc3c1CCC3)C2=O (stereo not given),65.3 µM (inactive),66.2 µM (inactive),47.8 µM (inactive),35.1 µM (inactive),71.8 µM (inactive),43.5 µM (inactive),> 100 µM (inactive),41 µM (inactive),43.8 µM (inactive),> 100 µM (inactive),> 100 µM (inactive),46.5 µM (inactive),95.3 µM (inactive),0.635 µM (active),25.4 µM (inactive),43.2 µM (inactive),84.3 µM (inactive),41.5,45.9 µM (inactive),> 100 µM (inactive)
CCCCCC/C=C1\CCC(CN(C)C)C1=O (stereo not given),2.56 µM (inactive),8.73 µM (inactive),3.15 µM (inactive),13 µM (inactive),7 µM (inactive),4.81 µM (inactive),15.1 µM (inactive),4.25 µM (inactive),11.5 µM (inactive),1.98 µM (inactive),16.6 µM (inactive),4.73 µM (inactive),3.74 µM (inactive),2.85 µM (inactive),14.3 µM (inactive),3.56 µM (inactive),16.9 µM (inactive),2.44,16 µM (inactive),3.53 µM (inactive)
O=c1[nH]c(=O)n(C2OC(CO)C(O)C(O)C2O)cc1F (stereo not given),> 100 µM (inactive),> 100 µM (inactive),> 100 µM (inactive),> 100 µM (inactive),> 100 µM (inactive),> 100 µM (inactive),> 100 µM (inactive),> 100 µM (inactive),> 100 µM (inactive),> 100 µM (inactive),> 100 µM (inactive),> 100 µM (inactive),> 100 µM (inactive),> 100 µM (inactive),> 100 µM (inactive),> 100 µM (inactive),> 100 µM (inactive),> 100,> 100 µM (inactive),> 100 µM (inactive)
CN1C2CCC1CC(CC(=O)NC(c1ccc(F)cc1)c1ccc(F)cc1)C2 (stereo not given),> 100 µM (inactive),> 100 µM (inactive),21.5 µM (inactive),22.5 µM (inactive),> 100 µM (inactive),38.6 µM (inactive),70 µM (inactive),> 100 µM (inactive),> 100 µM (inactive),64.7 µM (inactive),> 100 µM (inactive),18 µM (inactive),> 100 µM (inactive),> 100 µM (inactive),20.8 µM (inactive),59.7 µM (inactive),> 100 µM (inactive),> 100,> 100 µM (inactive),> 100 µM (inactive)
COc1ccc2nc3ccc(OC)cc3c([S+]([O-])Cc3ccc([N+](=O)[O-])cc3)c2c1 (stereo not given),2.18 µM (inactive),6.7 µM (inactive),2.92 µM (inactive),17.9 µM (inactive),8.87 µM (inactive),2.58 µM (inactive),2.81 µM (inactive),10.9 µM (inactive),14.5 µM (inactive),2.1 µM (inactive),23.3 µM (inactive),7.87 µM (inactive),3.65 µM (inactive),1.73 µM (inactive),16.7 µM (inactive),1.69 µM (inactive),12.9 µM (inactive),3.19,16.6 µM (inactive),5.9 µM (inactive)
Cn1c(=O)n2n(c1=O)C([S+]([O-])c1ccccc1)C2 (stereo not given),> 100 µM (inactive),> 100 µM (inactive),> 100 µM (inactive),> 100 µM (inactive),> 100 µM (inactive),> 100 µM (inactive),> 100 µM (inactive),> 100 µM (inactive),33.4 µM (inactive),> 100 µM (inactive),> 100 µM (inactive),> 100 µM (inactive),> 100 µM (inactive),30.8 µM (inactive),> 100 µM (inactive),> 100 µM (inactive),> 100 µM (inactive),> 100,> 100 µM (inactive),> 100 µM (inactive)
CC(C)(C)OC(=O)NCCCCC(NC(=O)OCc1ccccc1)C(N)=O (stereo not given),> 100 µM (inactive),> 100 µM (inactive),> 100 µM (inactive),> 100 µM (inactive),> 100 µM (inactive),> 100 µM (inactive),> 100 µM (inactive),> 100 µM (inactive),> 100 µM (inactive),> 100 µM (inactive),> 100 µM (inactive),> 100 µM (inactive),> 100 µM (inactive),> 100 µM (inactive),58.3 µM (inactive),> 100 µM (inactive),> 100 µM (inactive),> 100,82.2 µM (inactive),> 100 µM (inactive)
COc1ccc(/N=N/c2ccc3oc(=O)c(C(=O)Nc4ccc(OC)cc4)cc3c2)cc1,18.2 µM (inactive),17.4 µM (inactive),20.8 µM (inactive),14 µM (inactive),20.9 µM (inactive),22.6 µM (inactive),6.95 µM (inactive),13.4 µM (inactive),11 µM (inactive),14.1 µM (inactive),20.4 µM (inactive),16.9 µM (inactive),14 µM (inactive),26.5 µM (inactive),14.9 µM (inactive),11.2 µM (inactive),17.8 µM (inactive),6.79,28.5 µM (inactive),22.4 µM (inactive)
[O-][n+]1ccc(NO)c2ccccc21,1.56 µM (inactive),1.58 µM (inactive),1.41 µM (inactive),1.77 µM (inactive),2.09 µM (inactive),1.19 µM (inactive),0.679 µM (active),0.658 µM (active),1.51 µM (inactive),2.05 µM (inactive),0.295 µM (active),1.93 µM (inactive),1.38 µM (inactive),1.51 µM (inactive),1.25 µM (inactive),2.03 µM (inactive),3.73 µM (inactive),1.75,2.21 µM (inactive),2.02 µM (inactive)
